# Patent US20220251124A1, “3,5-BIS(PHENYL)-1H-HETEROARYL DERIVATIVES AS MEDICAMENTS” (INSTITUTE OF BIOTECHNOLOGY CAS, V.V.I., priority 2019, published 2022)
# Like-named read-outs stand apart in the source and are kept apart here.
# How the values were obtained:
# Assay type in all cases: cell-based
# MCF7 cells = assay: crystal violet assay, cellular viability (cytostatic and cytotoxic effect), 48 hrs; settings: for IC50: MCF7 (parental/control), crystal violet, read-out: IC50
# Protocol: (§1) Compound 1 and a comparative compound deferasirox (DFX) were tested in their efficacy to kill/suppress proliferation of malignant breast cancer MCF7 cells representing estrogen-dependent type of breast cancer. Briefly, 10.000 cells per well were seeded in a 96-well plate on one day and the next day the tested compounds were added and incubated with the cells for 48 hrs. The cells were then fixed with 4% paraformaldehyde, stained with 0.05% crystal violet, washed with PBS, and solubilized in 1% SDS. The absorbance of the plate at 595 nm was then measured, quantifying the number of viable cells.
# MDA-MB-231 cells = assay: crystal violet assay, cellular viability, 48 hrs; settings: for IC50: MDA-MB-231, crystal violet, read-out: IC50
# Protocol: as §1
# Compound 1 and the comparative compound deferasirox were tested in their efficacy to kill/suppress proliferation of malignant MDA-MB-231 cancer cells representing hard to treat triple negative breast cancer. The procedure is identical to that in example 12.
# [1] = tested on: UPF16A leukemia cell line; assay: alamarBlue Cell Viability Reagent, 48 hrs; settings: 48 hrs, UPF16A
# Protocol: (§2) Compound 1 and a comparative compound deferasirox (DFX) were tested in their efficacy to kill/suppress proliferation of several leukemia cells. Briefly, 10.000 cells per well were seeded in a 96-well plate on one day and the next day the tested compounds were added and incubated with the cells for 48 hrs. Cellular viability was determined as the ability to reduce the probe alamarBlue™ Cell Viability Reagent.
# UPF4D leukemia cell line [2] = assay: alamarBlue Cell Viability Reagent, 48 hrs; settings: 48 hrs, UPF4D
# Protocol: as §2
# UPF1H leukemia cell line [3] = assay: alamarBlue Cell Viability Reagent, 48 hrs; settings: 48 hrs
# Protocol: as §2
# UPF9T leukemia cell line [4] = assay: alamarBlue Cell Viability Reagent, 48 hrs; settings: 48 hrs, UPF9T
# Protocol: as §2
# leukemia cells = assay: alamarBlue viability, leukemia cells overall; settings: several leukemia cells, 48 hrs; read-out: IC50 (suppression of proliferation to 50%)
# Protocol: as §2
# MCF7 = assay: annexin V/PI staining, cell death induction, 48 hrs; settings: 500 μM
# Protocol: (§3) This effect seems to be based mainly on the cytostatic effect of compound 1. To define the ability to kill cells, cell death-inducing potency (cytotoxic efficacy) of DFX and compound 1 have been tested via annexin V/PI staining commonly used as a measure of apoptotic/necrotic cell death. Briefly, cells were seeded in 12-well plate at 100,000 per well, incubated with the selected compounds for 48 hours, then floating cells were spun, adherent cells trypsinized and spun as well followed by the staining with AnnexinV-FITC and PI probes. Cells were then washed with PBS and measured via Fluorescence Activated Sorter.
# Since compound 1 is an iron chelator, we have evaluated the effect of pre-loading compound 1 with iron at a 2:1 ratio and then applying it to the cells, followed by measurement of cell death using the Annexin V/PI staining as in example 4.
# non-malignant HFP1 cells = assay: as above; settings: 500 μM, 48 hrs, HFP1
# Protocol: as §3
# OVCAR = assay: as above; settings: 500 μM
# Protocol: as §3
# [5] = tested on: UPF16A leukemia cell line; assay: AnnexinV/PI assay, cell death induction, 48 hrs
# Protocol: as §3
# (§4) This effect seems to be based mainly on the cytostatic effect of compound 1. To define the ability to kill cells, cell death-inducing potency (cytotoxic efficacy) of DFX and compound 1 have been tested via annexin V/PI staining commonly used as a measure of apoptotic/necrotic cell death (see example 15). […] Compound 1 killed cancer cells with effects higher by almost 3 orders of magnitude than those of deferasirox. Such results are unprecedented and very unexpected.
# UPF4D leukemia cell line [6] = assay: AnnexinV/PI assay, cell death induction, 48 hrs
# Protocol: as §3, §4
# UPF1H leukemia cell line [7] = assay: AnnexinV/PI assay, cell death induction, 48 hrs
# Protocol: as §3, §4
# UPF9T leukemia cell line [8] = assay: AnnexinV/PI assay, cell death induction, 48 hrs
# Protocol: as §3, §4
# [9] = tested on: tamoxifen resistant T47D (Tam5R); assay: crystal violet assay, tamoxifen resistant cells; settings: Homo sapiens, T47D Tam5R grown in the presence of 5 μM tamoxifen
# Protocol: as §1
# (§5) To test whether compound 1 is active against resistant cancer cells, we used tamoxifen-resistant MCF7, T47D. The IC50 values were again measured with the crystal violet assay performed as in example 12. We have documented that there is a significant difference in the ability of compound 1 to induce cytostatic and cytotoxic effects between the parental cells sensitive to tamoxifen and the resistant ones that grow even in the presence of tamoxifen (Table 11), yet the IC50 values are still in the nM range, making this compound very efficient.
# [10] = tested on: tamoxifen resistant MCF7 (Tam5R); assay: crystal violet assay, tamoxifen resistant cells; settings: MCF7 Tam5R grown in the presence of 5 μM tamoxifen
# Protocol: as §1, §5
# [11] = 1 μM, read-out: viable cells compared to non-treated controls
# [12] = 3 μM, read-out: viable cells compared to non-treated controls
# [13] = 30 μM, read-out: viable cells compared to non-treated controls
# [14] = 100 μM, read-out: viable cells compared to non-treated controls
# [15] = 500 μM, read-out: viable cells compared to non-treated controls
smiles,measurement,setting,value
"O=C(O)c1ccc(-n2nc(-c3ccccc3O)nc2-c2ccccc2O)cc1 [DFX, deferasirox, reference compound]",viability at 1 µM,"MCF7 cells; Homo sapiens, 1 μM, MCF7, read-out: viable cells compared to non-treated controls",104%
same,viability at 3 µM,"MCF7 cells; Homo sapiens, 3 μM, MCF7, read-out: viable cells compared to non-treated controls",76%
same,viability at 10 µM,"MCF7 cells; Homo sapiens, 10 μM, MCF7, read-out: viable cells compared to non-treated controls",56.5%
same,viability at 30 µM,"MCF7 cells; Homo sapiens, 30 μM, MCF7, read-out: viable cells compared to non-treated controls",23.9%
same,IC50,"MCF7 cells; Homo sapiens, MCF7, 48 h",10 µM
same,IC50,MCF7 cells,10.9 µM
same,viability at 1 µM,"MDA-MB-231 cells; Homo sapiens, 1 μM, MDA-MB-231, read-out: viable cells compared to non-treated controls",109%
same,viability at 3 µM,"MDA-MB-231 cells; Homo sapiens, 3 μM, MDA-MB-231, read-out: viable cells compared to non-treated controls",90.8%
same,viability at 10 µM,"MDA-MB-231 cells; Homo sapiens, 10 μM, MDA-MB-231, read-out: viable cells compared to non-treated controls",70.4%
same,viability at 30 µM,"MDA-MB-231 cells; Homo sapiens, 30 μM, MDA-MB-231, read-out: viable cells compared to non-treated controls",62.1%
same,viability at 100 µM,"MDA-MB-231 cells; Homo sapiens, 100 μM, MDA-MB-231, read-out: viable cells compared to non-treated controls",55.7%
same,viability at 300 µM,"MDA-MB-231 cells; Homo sapiens, 300 μM, MDA-MB-231, read-out: viable cells compared to non-treated controls",14.1%
same,IC50,"MDA-MB-231 cells; Homo sapiens, MDA-MB-231, 48 h",70 µM
same,IC50,MDA-MB-231 cells,70 µM
same,viability at 1 µM,[1]; [11],82.5%
same,viability at 3 µM,[1]; [12],61.3%
same,viability at 30 µM,[1]; [13],34.7%
same,viability at 100 µM,[1]; [14],10.6%
same,viability at 500 µM,[1]; [15],9.7%
same,IC50,"[1]; alamarBlue, read-out: IC50",7.6 µM
same,viability at 1 µM,UPF4D leukemia cell line [2]; [11],92.7%
same,viability at 3 µM,UPF4D leukemia cell line [2]; [12],61.9%
same,viability at 30 µM,UPF4D leukemia cell line [2]; [13],2.9%
same,viability at 100 µM,UPF4D leukemia cell line [2]; [14],4%
same,viability at 500 µM,UPF4D leukemia cell line [2]; [15],11.1%
same,IC50,"UPF4D leukemia cell line [2]; alamarBlue, read-out: IC50",4.92 µM
same,viability at 1 µM,UPF1H leukemia cell line [3]; [11],94.3%
same,viability at 3 µM,UPF1H leukemia cell line [3]; [12],88%
same,viability at 30 µM,UPF1H leukemia cell line [3]; [13],7.3%
same,viability at 100 µM,UPF1H leukemia cell line [3]; [14],13.3%
same,viability at 500 µM,UPF1H leukemia cell line [3]; [15],22.4%
same,IC50,"UPF1H leukemia cell line [3]; alamarBlue, read-out: IC50",9.6 µM
same,viability at 1 µM,UPF9T leukemia cell line [4]; [11],90.8%
same,viability at 3 µM,UPF9T leukemia cell line [4]; [12],81.3%
same,viability at 30 µM,UPF9T leukemia cell line [4]; [13],49.2%
same,viability at 100 µM,UPF9T leukemia cell line [4]; [14],53.3%
same,viability at 500 µM,UPF9T leukemia cell line [4]; [15],39%
same,IC50,"UPF9T leukemia cell line [4]; alamarBlue, read-out: IC50",80.2 µM
same,IC50,leukemia cells,5 to 80 µM
same,dead cells (AnnexinV/PI),MCF7,85.2 (3.3) %
same,dead cells (AnnexinV/PI),non-malignant HFP1 cells,35.6 (1.5) %
same,dead cells (AnnexinV/PI),OVCAR,59.7 (4.6) %
same,dead cells (AnnexinV/PI),[5]; 1 μM,13.7 (5.0) %
same,dead cells (AnnexinV/PI),[5]; 10 μM,48.4 (16.2) %
same,dead cells (AnnexinV/PI),UPF4D leukemia cell line [6]; 1 μM,16.9 (16.9) %
same,dead cells (AnnexinV/PI),UPF4D leukemia cell line [6]; 10 μM,77.3 (3.5) %
same,dead cells (AnnexinV/PI),UPF1H leukemia cell line [7]; 1 μM,9.9 (1.3) %
same,dead cells (AnnexinV/PI),UPF1H leukemia cell line [7]; 10 μM,95.8 (0.2) %
same,dead cells (AnnexinV/PI),UPF9T leukemia cell line [8]; 1 μM,13.7 (3.3) %
same,dead cells (AnnexinV/PI),UPF9T leukemia cell line [8]; 10 μM,46.6 (5.2) %
same,IC50,[9],82.6 µM
same,IC50,[10],15 µM
